Data on two compounds can be found in patent EP3381907A1, “SYMMETRICAL 2-AMINOPHENYL-BENZAZOLYL-5-ACETATE COMPOUNDS AND THEIR USE AS ANTI-HEPARANASE” (Leadiant Biosciences SA, priority 2017, dated 2018).

One may read the pIC50 as the IC50 on a negative log10 scale, so that one unit is a factor of ten. The inhibition is the share of the control response that was lost under treatment.

pIC50: −log10 of the molar value.

In one assay the target is T1, heparanase (Homo sapiens, UniProt Q9Y251).
T1 sequence (Q9Y251 158-543 limits assumed): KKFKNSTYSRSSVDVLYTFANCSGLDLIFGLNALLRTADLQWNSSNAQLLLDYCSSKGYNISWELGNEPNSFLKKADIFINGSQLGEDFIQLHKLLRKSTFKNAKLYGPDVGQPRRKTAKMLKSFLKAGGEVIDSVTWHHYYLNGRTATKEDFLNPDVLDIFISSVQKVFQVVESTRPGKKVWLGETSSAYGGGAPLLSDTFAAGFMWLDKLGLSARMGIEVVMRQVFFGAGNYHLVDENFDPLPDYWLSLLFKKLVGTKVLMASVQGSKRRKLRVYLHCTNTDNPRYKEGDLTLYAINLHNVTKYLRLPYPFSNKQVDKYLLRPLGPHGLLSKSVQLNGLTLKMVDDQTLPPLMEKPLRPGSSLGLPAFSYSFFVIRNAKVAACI
T1 sequence (Q9Y251 36-109 limits assumed): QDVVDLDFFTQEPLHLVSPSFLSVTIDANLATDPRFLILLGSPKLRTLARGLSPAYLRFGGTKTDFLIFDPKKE
Nature of the assay: AGA*IA assay: colorimetric fondaparinux cleavage assay for heparanase inhibition (WST-1). The following applies: 2.5 nM heparanase, 100 µM fondaparinux, pH 5.0, 3 h at 37°C; class symbols. The format is biochemical. As to the method:
All compounds were tested in a simple, accurate and robust microplate assay based on the cleavage of the synthetic heparin fragment, the pentasaccharide Fondaparinux (AGA*IA). This assay was originally developed by Hammond and coworkers [Hammond E, Li CP, Ferro V. Development of a colorimetric assay for heparanase activity suitable for kinetic analysis and inhibitor screening. Anal. Biochem. 396(1), 112-116 (2010)], where Fondaparinux corresponds to the methyl glycoside of the antithrombin III (ATIII)-activating pentasaccharide sequence of heparin. Fondaparinux is cleaved by heparanase to generate a reducing disaccharide, which can be quantitatively measured via a colorimetric or a fluorescence assay, the last by the fluorescent sensor polymer-H [Schiemann S, Lühn S, Alban S. Development of both colorimetric and fluorescence heparinase activity assays using fondaparinux as substrate. Anal. Biochem. 427(1), 82-89 (2012)].
The assay measures the appearance of the disaccharide product of heparanase-catalyzed fondaparinux cleavage colorimetrically using the tetrazolium salt WST-1. Assay was essentially performed as described with minor modifications. Briefly, NUNC ELISA 96-well plates were pre-treated with a solution of 4% BSA (bovin serum albumin) in phosphate-buffered saline containing 0.05% Tween 20 (PBST), for 2 h at 37°C, then washed three times with PBST, dried by tapping on paper towel and stored at -20°C. Before use, once again, the plates were washed with PBST.
Assay was carried out with 100 µl/well of assay solution containing 40 mM sodium acetate buffer (pH 5.0), 100 µM fondaparinux, 2.5 nM heparanase and serial dilutions of test compounds (tested in triplicate). Plates were sealed with adhesive tape and incubated, in the dark, for 3 h at 37°C, followed by development with 1.69 mM of the tetrazolium salt WST-1 solution in 0.1 M NaOH, for 1 h at 60°C. Then, the absorbance at 560 nm was measured through a microplate reader (Victor 3, Perkin Elmer).
Finally, the measurements were corrected by subtracting both the reagent background and the inner absorbance value of test compound.

A further assay concerns MMP-9. Kind of assay: Real-Time quantitative PCR of MMP-9 mRNA in HT1080 cells. The format is cell-based, human. Particulars: 24 h. As to the method: To evaluate the effect of heparanase inhibitors on the tumor transcription of genes encoding for proangiogenic factors, such as FGF1/2, VEGF, MMP-9, HSPE-1, the relative mRNA levels were analyzed by quantitative Real-Time Quantitative PCR. To perform the assay, HT1080 (human fibrosarcoma) cells were cultured in complete medium containing 10%FCS (fetal calf serum). Cells were plated in 24-well plates and treated at fixed concentration (i.e., highest non-toxic concentration) of test compounds. After 24 h, cells were detached, collected and total RNA extracted by RNeasy Mini Kit (QIAGEN). Following reverse transcription step, FGF1/2, VEGF, MMP-9, HSPE-1 mRNA levels, were quantified by qPCR using the advanced Universal SYBR Green Supermix (Bio Rad) and ABI PRISM 7900HT Thermal Cycler System (Perkin Elmer), according to the manufacturer's instructions. Appropriate no-RT and non-template controls were included in each 96-well PCR reaction, and dissociation analysis was performed at the end of each run to confirm the specificity of the reaction. Relative levels of RNA were calculated using the ddCt method. Standard curve and sample data were run in duplicate.
In the Table 5 a mean value is reported.

The subject of assay [1] is U87MG (human glioblastoma astrocytoma). Kind of assay: Matrigel cell invasion assay, U87MG. Type of assay: cell-based. The following applies: Homo sapiens, U-87 MG, test compound at 2.5 µM, 24 h pre-treatment, 24 h invasion. As to the method:
Heparanase inhibitors were then evaluated for their activity on the invasive potential of HT1080 (human fibrosarcoma), U87MG (human glioblastoma astrocytoma) and U2OS (human osteosarcoma) human cell lines, using the Matrigel cell invasion assay which allows to assess the cell invasion ability of malignant and normal cells.
Invasion assay was performed using BioCoat cell culture inserts (BioCoat 8.0µm PET Membrane 24 Well Permeable Supports, Corning). Filters were coated with 100 µl of 300 µg/ml Matrigel dissolved in coating buffer (0.01 M Tris pH 8.0, 0.7% NaCl) (Becton-Dickinson Sciences). DMEM (Dulbecco's Modified Eagle's Medium) containing 5% FBS was added to the lower chambers. Cells were pre-treated with heparanase inhibitors for 24 h, detached and added to the upper chambers in media containing the inhibitors. Cells were allowed to invade for 24 h at 37°C in a CO2 incubator and then unmigrated cells were removed from the upper chamber with a cotton swab. The invading cells were fixed, stained with 0.1% crystal violet for 10 min at room temperature, photographed and counted under inverted microscope.
Test compounds were analyzed at fixed concentration (2.5 µM) for several fields, in duplicates. Activity of test compounds was compared to the reference compound. Activity of most interesting compound was confirmed in a second cell invasion assay. Data were expressed as the percent invasion with respect to cell migration through uncoated insert membrane (see Table 3 below)
Table 3. […] In Invasion assay, data were expressed as the percent invasion (range) with respect to cell migration through uncoated insert membrane. In Adhesion assay, data were expressed as the percent of adhesion with respect to the control (100%). • Legend • ++: 50-90% • + : < 50% • - : Not Active

In turn, `O=C(O)CNC(=O)Cc1ccc2oc(-c3ccc(NC(=O)Nc4ccc(-c5nc6cc(CC(=O)NCC(=O)O)ccc6o5)cc4F)c(F)c3)nc2c1` [Compound 25, 2,2'-((2,2'-(((Carbonylbis(azanediyl))bis(3-fluoro-4,1-phenylene))bis(benzo[d]oxazole-2,5-diyl))bis(acetyl))bis(azanediyl))diacetic acid] had a pIC50 against heparanase of 6.31 to 7.30. In addition, the “Gene Expression (% mRNA vs. control) MMP-9” value in the assay on MMP-9 (10.0 uM) was “∼ 65%”. In addition, the inhibition at 2.5 µM in assay [1] is 50 to 90%.

On to `O=C(O)Cc1ccc2oc(-c3ccc(NC(=O)Nc4ccc(-c5nc6cc(CC(=O)O)ccc6o5)cc4F)c(F)c3)nc2c1` [Compound 20, 2,2'-(((Carbonylbis(azanediyl))bis(3-fluoro-4,1-phenylene))bis(benzo[d]oxazole-2,5-diyl))diacetic acid], for which the pIC50 at heparanase is 6.31 to 7.30. In addition, in the assay with MMP-9 (2.5 uM), the “Gene Expression (% mRNA vs. control) MMP-9” value is “∼ 70%”. The inhibition at 2.5 µM in assay [1] lay in the range of 50 to 90%.
